#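 Cultured in 96-well plates, cells were exposed to test compound for 48 hours across five concentrations. Abbreviation: GI50, concentration required for 50% inhibition of growth. TGI denotes the concentration required for complete inhibition of growth.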
# Columns and labels:
# Assay in all cases: NCI tumour cell line growth inhibition, 48 h
# [1] = tested on: HCT-116 colon
# [2] = tested on: HL-60(TB) leukemia
# [3] = tested on: NCI/ADR-RES ovarian
# [4] = tested on: ACHN renal
# [5] = tested on: BT-549 breast
# [6] = tested on: DU-145 prostate
# [7] = tested on: M14 melanoma
# [8] = tested on: MDA-MB-435
# [9] = tested on: PC-3 prostate
# [10] = tested on: T-47D breast
SMILES,TGI [1] [µM],TGI [2] [µM],TGI [3] [µM],TGI [4] [µM],TGI [5] [µM],TGI [6] [µM],TGI [7] [µM],TGI [8] [µM],TGI [9] [µM],TGI [10] [µM],GI50 [4] [µM],GI50 [5] [µM],GI50 [6] [µM],GI50 [1] [µM],GI50 [7] [µM],GI50 [3] [µM],GI50 [9] [µM],GI50 [2] [nM],GI50 [8] [nM],GI50 [10] [nM]
CC(=O)Nc1ccc(/C=C/c2ccc(NC(=O)Nc3ccc(/C=C/c4ccc(NC(C)=O)cc4S(=O)(=O)O)c(S(=O)(=O)O)c3)cc2S(=O)(=O)O)c(S(=O)(=O)O)c1,> 100,> 100,> 100,,,,,,,,,,,,,,,,,
COCc1nc2c(OC)c(-c3nc4nc(N5CCN(C)CC5)ccc4[nH]3)cc(OC)c2n1C,> 100,36.2,> 100,57.4,> 100,> 100,43.3,48.4,63.4,> 100,,,,,,,,,,
CC1CC2=C(S(=O)(=O)c3ccccc3)CC(S(=O)(=O)c3ccccc3)(S(=O)(=O)c3ccccc3)CC21 (stereo not given),> 100,> 100,,> 100,,,> 100,,,,,,,,,,,,,
COCCCNc1nc(N)c(C#N)c(C#N)c1C#N,> 10,> 10,> 10,> 10,,> 10,> 10,> 10,> 10,> 10,,,,,,,,,,
CCOC(=O)c1ccc(N[C@@H]2c3cc4c(cc3C(c3cc(OC)c(O)c(OC)c3)[C@H]3C(=O)OCC32)OCO4)cc1O (stereo not given in full),8.26,5.66,99.3,,,,,,,,,,,,,,,,,
CC1CCCCNC1=S (stereo not given),,> 10,,> 10,> 10,> 10,> 10,> 10,> 10,> 10,,,,,,,,,,
COc1cc2oc(-c3ccc(O)cc3)c(OC)c(=O)c2c(O)c1OC,> 100,,> 100,> 100,> 100,> 100,> 100,,> 100,,35.8,27.7,18.3,34.8,47.2,30.9,40.6,,,
CCOC(=O)CNC(=O)N(CC)C12CC3CC(CC(C3)C1)C2,297,314,402,,,,,,,,,,,,,,,,,
COc1ccccc1CNCCCN1C(=O)c2ccc3c4c(ccc(c24)C1=O)C(=O)N(CCCNCCNCCCN)C3=O,3.04,6.34,> 100,79.8,6.43,12.5,4.49,4.94,80.2,4.99,4.45,2.58,3.65,0.717,2.07,23.1,5.91,2540,2070,1510
CCOC(=O)Cn1c(=O)ccn(COCCO)c1=O,,> 100,> 100,> 100,> 100,> 100,> 100,> 100,> 100,> 100,,,,,,,,,,
COc1ccc(S(=O)(=O)c2ccccc2[N+](=O)[O-])cc1,> 100,> 100,,,,,> 100,,,,,,,,,,,,,
C/C(=N/NC(N)=S)c1ccc[nH]1,> 100,> 100,> 100,> 100,> 100,> 100,> 100,> 100,> 100,> 100,,,,,,,,,,
CCC(=O)Oc1ccc2c(c1)c(=O)c1c(NCCCN(C)C)ccc3nnn2c31,14.4,,18.5,12.7,24.7,16.7,20.1,18.7,16.1,31,,,,,,,,,,
